“And” between values parts separate entries of the source, which are not always exact repeats. Equal entries are not always repeated. Toxic doses and inconclusive results are not listed. Square brackets hold non-standard residues; d marks the D form. Peptide text beside a SMILES is read from it. Tyr(3,5-I2) = N[CH](Cc1cc(I)c(O)c(I)c1)C(=O)O
Test system: P388 leukemia ip, CD2F1 mice, survival T/C
Assay: NCI In Vivo Anticancer Drug Screen. Data for tumor model P388 Leukemia (intraperitoneal) in CD2F1 (CDF1) mice
Details: endpoint: median survival time, higher = longer survival
How it was run: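 Mice carrying the transplanted tumor received test compound or vehicle. Survival was recorded in each group, and the value is the treated-group measurement divided by that of the vehicle-treated control group.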

[1] = dose: 50.0 mg/kg/injection, schedule: Q01DX005 (ip), vehicle: saline with Tween-80
[2] = dose: 100.0 mg/kg/injection, schedule: Q01DX005 (ip), vehicle: saline with Tween-80
[3] = dose: 60.0 mg/kg/injection, schedule: Q01DX005 (ip), vehicle: Klucel (hydroxypropylcellulose) (HPC)
[4] = dose: 120.0 mg/kg/injection, schedule: Q01DX005 (ip), vehicle: Klucel (hydroxypropylcellulose) (HPC)
[5] = dose: 240.0 mg/kg/injection, schedule: Q01DX005 (ip), vehicle: Klucel (hydroxypropylcellulose) (HPC)
[6] = dose: 15.0 mg/kg/injection, schedule: Q01DX005 (ip), vehicle: saline with Tween-80
[7] = dose: 30.0 mg/kg/injection, schedule: Q01DX005 (ip), vehicle: saline with Tween-80
[8] = dose: 60.0 mg/kg/injection, schedule: Q01DX005 (ip), vehicle: saline with Tween-80
[9] = dose: 50.0 mg/kg/injection, schedule: Q01DX009 (ip), vehicle: saline
[10] = dose: 100.0 mg/kg/injection, schedule: Q01DX009 (ip), vehicle: saline
[11] = dose: 200.0 mg/kg/injection, schedule: Q01DX005 (ip), vehicle: saline with Tween-80
[12] = dose: 120.0 mg/kg/injection, schedule: Q01DX005 (ip), vehicle: saline with Tween-80
[13] = dose: 50.0 mg/kg/injection, schedule: Q01DX005 (ip), vehicle: Klucel (hydroxypropylcellulose) (HPC)
[14] = dose: 100.0 mg/kg/injection, schedule: Q01DX005 (ip), vehicle: Klucel (hydroxypropylcellulose) (HPC)
[15] = dose: 200.0 mg/kg/injection, schedule: Q01DX005 (ip), vehicle: Klucel (hydroxypropylcellulose) (HPC)
[16] = dose: 50.0 mg/kg/injection, schedule: Q01DX009 (ip), vehicle: saline with Tween-80
[17] = dose: 25.0 mg/kg/injection, schedule: Q01DX001 (ip), vehicle: Klucel (hydroxypropylcellulose) (HPC)
[18] = dose: 50.0 mg/kg/injection, schedule: Q01DX001 (ip), vehicle: Klucel (hydroxypropylcellulose) (HPC)
[19] = dose: 100.0 mg/kg/injection, schedule: Q01DX001 (ip), vehicle: Klucel (hydroxypropylcellulose) (HPC)

In the case of `Cc1ccc(S(=O)(=O)NC(=O)Nc2sc(=S)c3c(c2C#N)CCCC3)cc1`, the T/C [1] is reported as 100 % of control and the T/C [2] is reported as 103 % of control.
With `CN(CCOc1ccccc1)Cc1ccccc1` the T/C [3] was 97 % of control, the T/C [4] was 104 % of control and the T/C [5] was 105 % of control.
In the case of `Nc1nnc2nc(CC(=O)c3cccc([N+](=O)[O-])c3Cl)c(=O)[nH]n12`, the T/C [6] is reported as 106 % of control, the T/C [7] is reported as 98 % of control and the T/C [8] is reported as 100 % of control and 103 % of control.
In the case of `CCC(C)C1NC(=O)C(NC(=O)c2c3[nH]c4c(C(=O)NC5C(=O)NC(C(C)CC)C(=O)N6CCCC6C(=O)N(C)CC(=O)N(C)C(C(C)C)C(=O)OC5C)ccc(C)c4oc-3c(C)c(=O)c2=O)C(C)OC(=O)C(C(C)C)N(C)C(=O)CN(C)C(=O)C2CCCN2C1=O` (configuration not stated), the T/C (dose: 0.05 mg/kg/injection, schedule: Q01DX009 (ip), vehicle: water) is reported as 99 % of control, the T/C (dose: 0.1 mg/kg/injection, schedule: Q01DX009 (ip), vehicle: water) is reported as 104 % of control and the T/C (dose: 0.2 mg/kg/injection, schedule: Q01DX009 (ip), vehicle: water) is reported as 95 % of control. The T/C (dose: 0.4 mg/kg/injection, schedule: Q01DX009 (ip), vehicle: water) was 100 % of control and 104 % of control, the T/C (dose: 0.8 mg/kg/injection, schedule: Q01DX009 (ip), vehicle: water) was 101 % of control and 96 % of control and the T/C (dose: 1.6 mg/kg/injection, schedule: Q01DX009 (ip), vehicle: water) was 102 % of control and 110 % of control. The T/C (dose: 3.2 mg/kg/injection, schedule: Q01DX009 (ip), vehicle: water) was 110 % of control and the T/C (dose: 6.4 mg/kg/injection, schedule: Q01DX009 (ip), vehicle: water) was 123 % of control.
In the case of `C=C1[C@@]2(O)CCCC[C@@H]2C[N+]1(C)C`, the T/C [9] is reported as 91 % of control, the T/C [10] is reported as 90 % of control and the T/C (dose: 200.0 mg/kg/injection, schedule: Q01DX009 (ip), vehicle: saline) is reported as 95 % of control.
For `CC12C(=O)OC(=O)C1CCc1c2ccc2ccccc12` (configuration not stated), the T/C [1] was 107 % of control, the T/C [2] was 110 % of control and the T/C [11] was 107 % of control.
With `CCOC(=O)c1cc(/C=C/c2ccc(Cl)cc2)on1` the T/C [8] was 91 % of control and the T/C [12] was 90 % of control.
With `Cc1ccc(S(=O)(=O)NC(=O)n2ccnc2C)cc1` the T/C [13] was 97 % of control, the T/C [14] was 100 % of control and the T/C [15] was 104 % of control.
For `Cc1ccc2c3nc4ccccc4c-3csc2c1`, the T/C (dose: 18.0 mg/kg/injection, schedule: Q01DX009 (ip), vehicle: saline) was 104 % of control and the T/C (dose: 27.5 mg/kg/injection, schedule: Q01DX009 (ip), vehicle: saline) was 89 % of control.
`CCC[CH2][Sn]([CH2]CCC)([CH2]CCC)[CH2]CCNCCCN(C)C` was tested, and the T/C (dose: 6.25 mg/kg/injection, schedule: Q01DX009 (ip), vehicle: saline) was 96 % of control, the T/C (dose: 12.5 mg/kg/injection, schedule: Q01DX009 (ip), vehicle: saline) was 97 % of control and the T/C (dose: 25.0 mg/kg/injection, schedule: Q01DX009 (ip), vehicle: saline) was 96 % of control. For the same compound, the T/C [9] was 90 % of control and the T/C [10] was 86 % of control.
With `O=C(O)CNOCc1ccccc1` the T/C (dose: 12.5 mg/kg/injection, schedule: Q01DX009 (ip), vehicle: other) was 95 % of control, the T/C (dose: 25.0 mg/kg/injection, schedule: Q01DX009 (ip), vehicle: other) was 102 % of control and the T/C (dose: 50.0 mg/kg/injection, schedule: Q01DX009 (ip), vehicle: other) was 102 % of control. The T/C (dose: 100.0 mg/kg/injection, schedule: Q01DX009 (ip), vehicle: other) was 93 % of control and the T/C (dose: 200.0 mg/kg/injection, schedule: Q01DX009 (ip), vehicle: other) was 89 % of control.
For `CN(C)c1ccc(/C=N/NC(=O)C(=O)NCc2ccco2)cc1`, the T/C [16] was 94 % of control, the T/C (dose: 100.0 mg/kg/injection, schedule: Q01DX009 (ip), vehicle: saline with Tween-80) was 86 % of control and the T/C (dose: 200.0 mg/kg/injection, schedule: Q01DX009 (ip), vehicle: saline with Tween-80) was 91 % of control.
`c1c(-c2cc(C3CC3)on2)noc1C1CC1` was tested, and the T/C (dose: 60.0 mg/kg/injection, schedule: Q01DX005 (ip), vehicle: saline) was 100 % of control, the T/C (dose: 120.0 mg/kg/injection, schedule: Q01DX005 (ip), vehicle: saline) was 109 % of control and the T/C (dose: 240.0 mg/kg/injection, schedule: Q01DX005 (ip), vehicle: saline) was 105 % of control.
For `CCCC(O)CCC(O)=C1C(=O)CCC1=O` (configuration not stated), the T/C (dose: 50.0 mg/kg/injection, schedule: Q01DX005 (ip), vehicle: saline) was 107 % of control, the T/C (dose: 100.0 mg/kg/injection, schedule: Q01DX005 (ip), vehicle: saline) was 107 % of control and the T/C (dose: 200.0 mg/kg/injection, schedule: Q01DX005 (ip), vehicle: saline) was 107 % of control.
For `CC(=O)NC(Cc1ccccc1)C(=O)NC(Cc1cc(I)c(O)c(I)c1)C(=O)O` (configuration not stated) (Ac-Phe-[Tyr(3,5-I2)]-OH; configuration not given here), the T/C [13] was 93 % of control, the T/C [14] was 107 % of control and the T/C [15] was 99 % of control.
In the case of `Cc1cc(=O)c2cc3ccc4c5[nH]c(C)cc(=O)c5cc5ccc(c2[nH]1)c3c54`, the T/C [1] is reported as 101 % of control, the T/C [2] is reported as 106 % of control and the T/C [11] is reported as 111 % of control.
For `C1SSCC2=C1CSSC2`, the T/C [8] was 100 % of control, the T/C [12] was 100 % of control and the T/C (dose: 240.0 mg/kg/injection, schedule: Q01DX005 (ip), vehicle: saline with Tween-80) was 107 % of control.
`O=C1NC(=O)c2c1c1cnn(-c3ccccc3)c1n1cccc21` was tested, and the T/C (dose: 7.5 mg/kg/injection, schedule: Q01DX005 (ip), vehicle: saline with Tween-80) was 96 % of control, the T/C [6] was 96 % of control and the T/C [7] was 87 % of control.
In the case of `O=C(/C=C/C1N=C1c1ccccc1)c1ccccc1` (configuration not stated), the T/C [17] is reported as 100 % of control, the T/C [18] is reported as 107 % of control and the T/C [19] is reported as 106 % of control and 107 % of control.
For `COc1cccc(/C=C/C(C)=N/NC(N)=O)c1`, the T/C (dose: 30.0 mg/kg/injection, schedule: Q01DX005 (ip), vehicle: Klucel (hydroxypropylcellulose) (HPC)) was 100 % of control, the T/C [3] was 101 % of control and the T/C [4] was 100 % of control. The T/C [5] was 95 % of control.
With `Nc1c(Br)cc(Br)c2[nH]c(=O)c3ccccc3c12` the T/C [8] was 116 % of control and the T/C [12] was 106 % of control.
In the case of `O=C1OC(C(O)CO)C(=N\Nc2ccc(Cl)cc2)/C1=N/Nc1ccccc1` (configuration not stated), the T/C [19] is reported as 103 % of control, the T/C (dose: 200.0 mg/kg/injection, schedule: Q01DX001 (ip), vehicle: Klucel (hydroxypropylcellulose) (HPC)) is reported as 103 % of control and the T/C (dose: 400.0 mg/kg/injection, schedule: Q01DX001 (ip), vehicle: Klucel (hydroxypropylcellulose) (HPC)) is reported as 110 % of control.
For `Cc1ccc(NCCNCCO)c2c(=O)c3ccc(O)cc3sc12`, the T/C [16] was 174 % of control.
`Cc1cc(C)c(C2=NO[C@H]3c4ccccc4OC[C@@H]23)c(C)c1` was tested, and the T/C [13] was 105 % of control, the T/C [14] was 96 % of control and the T/C [15] was 89 % of control.
For `N/N=C1\C(Cl)=C(Cl)c2ccccc21`, the T/C [13] was 90 % of control, the T/C [14] was 93 % of control and the T/C [15] was 90 % of control.
In the case of `COc1ccc(CN(CCCCCCN(Cc2ccc(OC)cc2)CC23CC4CC(CC(C4)C2)C3)CC23CC4CC(CC(C4)C2)C3)cc1`, the T/C (dose: 100.0 mg/kg/injection, schedule: Q04DX002 (ip), vehicle: saline with Tween-80) is reported as 98 % of control, the T/C (dose: 200.0 mg/kg/injection, schedule: Q04DX002 (ip), vehicle: saline with Tween-80) is reported as 94 % of control and the T/C (dose: 400.0 mg/kg/injection, schedule: Q04DX002 (ip), vehicle: saline with Tween-80) is reported as 94 % of control.
`Cc1ccc(-c2nnc3cc(C)n4nnnc4n23)cc1` was tested, and the T/C (dose: 6.25 mg/kg/injection, schedule: Q01DX005 (ip), vehicle: Klucel (hydroxypropylcellulose) (HPC)) was 101 % of control, the T/C (dose: 12.5 mg/kg/injection, schedule: Q01DX005 (ip), vehicle: Klucel (hydroxypropylcellulose) (HPC)) was 108 % of control and the T/C (dose: 25.0 mg/kg/injection, schedule: Q01DX005 (ip), vehicle: Klucel (hydroxypropylcellulose) (HPC)) was 108 % of control. The T/C [13] was 101 % of control, the T/C [14] was 105 % of control and the T/C [15] was 107 % of control.
`COc1ccc(C(O)C2c3c(cc4c(c3OC)OCO4)CCN2C)c(CO)c1OC` (configuration not stated) was tested, and the T/C (dose: 12.5 mg/kg/injection, schedule: Q01DX001 (ip), vehicle: Klucel (hydroxypropylcellulose) (HPC)) was 88 % of control, the T/C [17] was 88 % of control and the T/C [18] was 94 % of control.
For `O=[n+]1ccn([O-])c2ccccc21.[Mn].[O-][Cl+3]([O-])([O-])O`, the T/C (dose: 100.0 mg/kg/injection, schedule: Q04DX003 (ip), vehicle: saline with Tween-80) was 118 % of control.
